Laboratory results taken from US11439707B2, “Hypocrellin derivative substituted both in a peri-position and in 2-position by amino, preparation method, and application thereof” (priority 2017, dated 2022).

What was measured:
[1] = absorption spectrum (maximum absorption wavelength, molar extinction coefficient); assay type: physicochemical
[2] = singlet oxygen efficiency test, reference rose bengal; assay type: physicochemical

SMILES | maximum absorption wavelength [1] | molar extinction coefficient [1] | singlet oxygen yield [2]
COc1c(O)c2c(=O)cc(OC)c3c4c(OC)cc(=O)c5c(NC(C(=O)O)C(C)C)c(NC(C(=O)O)C(C)C)c6c(c(c1C(C(C)=O)C(C)=C6)c23)c54 (stereo not drawn) [HB-22a] | 621 nm | 21,000 M^−1cm^−1 | 18%
COc1c(O)c2c(=O)cc(OC)c3c4c(OC)cc(=O)c5c(NCCSCCOCCO)c(NCCSCCOCCO)c6c(c(c1C(C(C)=O)C(C)=C6)c23)c54 (stereo not drawn) [HB-6a-PEG1] | 622 nm | 30,500 M^−1cm^−1 | 28%
COCCOCCOCCOCCOCCOCCOCCC(=O)N1CCC(CNc2c(O)c3c(=O)c(Br)c(OC)c4c5c(OC)cc(=O)c6c(NCC7CCN(C(=O)CCOCCOCCOCCOCCOCCOCCOC)CC7)c(OC)c7c(c(c2C=C(C)C7C(C)=O)c34)c65)CC1 (stereo not drawn) [HB-31b-Br-PEG6] | 624 nm | 31,500 M^−1cm^−1 | 31%
CCCCCCNc1c(O)c2c(=O)cc(OC)c3c4c(OC)cc(=O)c5c(NCCCCCC)c(OC)c6c(c(c1C=C(C)C6)c23)c54 [HC-34b] | 620 nm | 31,500 M^−1cm^−1 | 32%
COc1c(NCC2CCC(C(=O)O)CC2)c2c(=O)cc(OC)c3c4c(OC)cc(=O)c5c(O)c(NCC6CCC(C(=O)O)CC6)c6c(c(c1C(C(C)=O)C(C)=C6)c23)c54 (stereo not drawn) [HB-13b] | 621 nm | 28,000 M^−1cm^−1 | 26%
COc1c(O)c2c(=O)cc(OC)c3c4c(OC)cc(=O)c5c(NCCC(=O)NCCN6CCOCC6)c(NCCC(=O)NCCN6CCOCC6)c6c(c(c1C(C(C)=O)C(C)=C6)c23)c54 (stereo not drawn) [HB-42a] | 620 nm | 32,500 M^−1cm^−1 | 33%
CCNc1c2c3c4c(c(OC)c(=O)c5c(O)cc(OC)c(c6c(OC)cc(NC7CCCC7)c(c1=O)c63)c54)C(C(C)=O)C(C)=C2 (stereo not drawn) [HB-44c] | 624 nm | 21,000 M^−1cm^−1 | 20%
COc1c2c3c4c(c(NC5CCC(O)CC5)c(=O)c5c(O)cc(OC)c(c6c(OC)cc(NC7CCC(O)CC7)c(c1=O)c63)c54)C=C(C)C2C(C)=O (stereo not drawn) [HB-17d] | 624 nm | 25,000 M^−1cm^−1 | 22%
COc1c2c3c4c(c(NCc5ccccn5)c(=O)c5c(NCc6ccccn6)cc(OC)c(c6c(OC)cc(O)c(c1=O)c63)c54)C=C(C)C2C(C)=O (stereo not drawn) [HB-38c] | 628 nm | 20,000 M^−1cm^−1 | 18%
COCCOCCOCCOCCOCCOCCOCCC(=O)OCCOCCNc1c(O)c2c(=O)cc(OC)c3c4c(OC)cc(=O)c5c(NCCOCCOC(=O)CCOCCOCCOCCOCCOCCOCCOC)c(OC)c6c(c(c1C=C(C)C6)c23)c54 [HC-1b-PEG6] | 624 nm | 30,000 M^−1cm^−1 | 30%
COCCOCCOCCOCCOCCOCCOCCOCCOCCOCCOCCOCCOC(=O)C1CCCC(Nc2c3c4c5c(c(OC)c(=O)c6c(O)cc(OC)c(c7c(OC)cc(NC8CCCC(C(=O)OCCOCCOCCOCCOCCOCCOCCOCCOCCOCCOCCOCCOC)C8)c(c2=O)c74)c65)C(C(C)=O)C(C)=C3)C1 (stereo not drawn) [HB-15c-PEG12] | 630 nm | 33,000 M^−1cm^−1 | 35%
COCCOCCOCCOCCOCCOCCOCCOCCOCCOCCOCCOCCOCCC(=O)N1CCC(CNc2c3c4c5c(c(OC)c(=O)c6c(NCC7CCN(C(=O)CCOCCOCCOCCOCCOCCOCCOCCOCCOCCOCCOCCOCCOC)CC7)cc(OC)c(c7c(OC)c(Br)c(O)c(c2=O)c47)c65)C(C(C)=O)C(C)=C3)CC1 (stereo not drawn) [HB-31d-Br-PEG12] | 632 nm | 31,500 M^−1cm^−1 | 33%
COc1c(O)c2c(=O)cc(OC)c3c4c(OC)cc(=O)c5c(NC(CC(=O)O)C(=O)O)c(NC(CC(=O)O)C(=O)O)c6c(c(c1C(C(C)=O)C(C)=C6)c23)c54 (stereo not drawn) [HB-27a] | 621 nm | 20,500 M^−1cm^−1 | 18%
COC(=O)C1CCC(CNc2c3c4c5c(c(OC)c(=O)c6c(NCC7CCC(C(=O)OC)CC7)cc(OC)c(c7c(OC)cc(O)c(c2=O)c74)c65)C(C(C)=O)C(C)=C3)CC1 (stereo not drawn) [HB-13d-AcE] | 623 nm | 28,000 M^−1cm^−1 | 25%
COCCOCCOCCOCCOCCOCCOC(=O)CCCCCNc1c(O)c2c(=O)cc(OC)c3c4c(OC)cc(=O)c5c(NCCCCCC(=O)OCCOCCOCCOCCOCCOCCOC)c(OC)c6c(c(c1C=C(C)C6)c23)c54 [HC-9b-PEG6] | 622 nm | 30,500 M^−1cm^−1 | 30%
COc1c(O)c2c(=O)cc(OC)c3c4c(OC)cc(=O)c5c(NCCC(=O)O)c(NCCC(=O)O)c6c(c(c1C(C(C)=O)C(C)=C6)c23)c54 (stereo not drawn) [HB-10a] | 620 nm | 31,000 M^−1cm^−1 | 32%
COc1c2c3c4c(c(NCC[N+]56CC[N+](C)(CC5)CC6)c(=O)c5c(NCC[N+]67CC[N+](C)(CC6)CC7)cc(OC)c(c6c(OC)cc(O)c(c1=O)c63)c54)C=C(C)C2C(C)=O (stereo not drawn) [HB-41c] | 621 nm | 33,500 M^−1cm^−1 | 35%

SMILES | maximum absorption wavelength [1] | molar extinction coefficient [1] | singlet oxygen yield [2]
COc1c(NCCNCCOCCOCCOCCOCCO)c2c(=O)cc(OC)c3c4c(OC)cc(=O)c5c(O)c(NCCNCCOCCOCCOCCOCCO)c6c(c(c1C(C(C)=O)C(C)=C6)c23)c54 (stereo not drawn) [HB-5b-PEG4] | 625 nm | 30,500 M^−1cm^−1 | 31%
CCNNc1c2c3c4c(c(OC)c(=O)c5c(NNCC)cc(OC)c(c6c(OC)cc(O)c(c1=O)c63)c54)C(C(C)=O)C(C)=C2 (stereo not drawn) [HB-36d] | 621 nm | 32,000 M^−1cm^−1 | 32%
COc1c(NCC(=O)O)c2c(=O)cc(OC)c3c4c(OC)cc(=O)c5c(O)c(NCC(=O)O)c6c(c(c1C(C(C)=O)C(C)=C6)c23)c54 (stereo not drawn) [HB-7b] | 622 nm | 28,000 M^−1cm^−1 | 25%
COCCOCCOCCOCCOCCNC(=O)C1CCC(CNc2c(O)c3c(=O)cc(OC)c4c5c(OC)cc(=O)c6c(NCC7CCC(C(=O)NCCOCCOCCOCCOCCOC)CC7)c(OC)c7c(c(c2C=C(C)C7)c34)c65)CC1 (stereo not drawn) [HC-13b-NH-PEG4] | 624 nm | 30,000 M^−1cm^−1 | 32%
COCCOCCOCCOCCOCCOCCOCCOCCOCCNC(=O)C1CCC(CNc2c3c4c5c(c(OC)c(=O)c6c(NCC7CCC(C(=O)NCCOCCOCCOCCOCCOCCOCCOCCOCCOC)CC7)cc(OC)c(c7c(OC)cc(O)c(c2=O)c74)c65)CC(C)=C3)CC1 (stereo not drawn) [HC-13d-NH-PEG8] | 625 nm | 32,500 M^−1cm^−1 | 30%
COc1c2c3c4c(c(NCc5cccc[n+]5C)c(=O)c5c(O)cc(OC)c(c6c(OC)cc(NCc7cccc[n+]7C)c(c1=O)c63)c54)C=C(C)C2C(C)=O (stereo not drawn) [HB-38d-N^+] | 626 nm | 21,500 M^−1cm^−1 | 20%
COc1c(NCCC(=O)O)c2c(=O)cc(OC)c3c4c(OC)cc(=O)c5c(O)c(NCCC(=O)O)c6c(c(c1C(C(C)=O)C(C)=C6)c23)c54 (stereo not drawn) [HB-10b] | 615 nm | 31,500 M^−1cm^−1 | 34%
CCNc1c(NC2CCCC2)c2c(=O)c(SCCO)c(OC)c3c4c(OC)cc(=O)c5c(O)c(OC)c6c(c(c1C=C(C)C6C(C)=O)c23)c54 (stereo not drawn) [HB-S-44a] | 628 nm | 21,500 M^−1cm^−1 | 20%
COc1c(O)c2c(=O)cc(OC)c3c4c(OC)cc(=O)c5c(NCCCCCC(=O)O)c(NCCCCCC(=O)O)c6c(c(c1CC(C)=C6)c23)c54 [HC-9a] | 620 nm | 26,500 M^−1cm^−1 | 26%
CCNc1c(O)c2c(=O)c(SCCO)c(OC)c3c4c(OC)cc(=O)c5c(NC6CCCC6)c(OC)c6c(c(c1C=C(C)C6C(C)=O)c23)c54 (stereo not drawn) [HB-S-44b] | 622 nm | 21,000 M^−1cm^−1 | 18%
COc1c2c3c4c(c(NC5CCCCC5C(=O)O)c(=O)c5c(O)cc(OC)c(c6c(OC)cc(NC7CCCCC7C(=O)O)c(c1=O)c63)c54)C=C(C)C2C(C)=O (stereo not drawn) [HB-16d] | 625 nm | 26,500 M^−1cm^−1 | 26%
COc1c(O)c2c(=O)cc(OC)c3c4c(OC)cc(=O)c5c(NCCOCCO)c(NCCOCCO)c6c(c(c1C(C(C)=O)C(C)=C6)c23)c54 (stereo not drawn) [HB-1a] | 630 nm | 30,000 M^−1cm^−1 | 35%
COc1c2c3c4c(c(NC(C(=O)O)C(C)C)c(=O)c5c(O)cc(OC)c(c6c(OC)cc(NC(C(=O)O)C(C)C)c(c1=O)c63)c54)C=C(C)C2C(C)=O (stereo not drawn) [HB-22d] | 625 nm | 21,500 M^−1cm^−1 | 22%
COc1c(NCCCCCC(=O)O)c2c(=O)cc(OC)c3c4c(OC)cc(=O)c5c(O)c(NCCCCCC(=O)O)c6c(c(c1CC(C)=C6)c23)c54 [HC-9b] | 622 nm | 27,500 M^−1cm^−1 | 24%
COCCOCCOCCOCCOCCOCCOC(=O)CCCCCNc1c2c3c4c(c(OC)c(=O)c5c(O)cc(OC)c(c6c(OC)cc(NCCCCCC(=O)OCCOCCOCCOCCOCCOCCOC)c(c1=O)c63)c54)CC(C)=C2 [HC-9c-PEG6] | 628 nm | 33,000 M^−1cm^−1 | 36%
COCCOCCC(=O)OC1CCC(Nc2c(NC3CCC(OC(=O)CCOCCOC)CC3)c3c(=O)cc(OC)c4c5c(OC)cc(=O)c6c(O)c(OC)c7c(c(c2C=C(C)C7C(C)=O)c34)c65)CC1 (stereo not drawn) [HB-17a-PEG1] | 622 nm | 30,500 M^−1cm^−1 | 30%
